According to PMC8799717, “Pharmacological targeting PIKfyve and tubulin as an effective treatment strategy for double-hit lymphoma” (Cell Death Discovery, 2022):

How the values were obtained:
Experiment in all cases: biochemical
Parameters in all cases: KINOMEscan active-site-directed competition binding panel, 468 kinases, percent of DMSO control at 1 uM
Settings in all cases: KINOMEscan binding, percent of DMSO control; read-out: Ctrl%
[1] = target: T1, ABL1(F317L)-nonphosphorylated (Homo sapiens, UniProt P00519, F317L)
T1 construct: nonphosphorylated

ARK5 = target: T2, ARK5 (Homo sapiens, UniProt O60285)
T2 construct: gene NUAK1
T2 sequence (O60285 whole entry): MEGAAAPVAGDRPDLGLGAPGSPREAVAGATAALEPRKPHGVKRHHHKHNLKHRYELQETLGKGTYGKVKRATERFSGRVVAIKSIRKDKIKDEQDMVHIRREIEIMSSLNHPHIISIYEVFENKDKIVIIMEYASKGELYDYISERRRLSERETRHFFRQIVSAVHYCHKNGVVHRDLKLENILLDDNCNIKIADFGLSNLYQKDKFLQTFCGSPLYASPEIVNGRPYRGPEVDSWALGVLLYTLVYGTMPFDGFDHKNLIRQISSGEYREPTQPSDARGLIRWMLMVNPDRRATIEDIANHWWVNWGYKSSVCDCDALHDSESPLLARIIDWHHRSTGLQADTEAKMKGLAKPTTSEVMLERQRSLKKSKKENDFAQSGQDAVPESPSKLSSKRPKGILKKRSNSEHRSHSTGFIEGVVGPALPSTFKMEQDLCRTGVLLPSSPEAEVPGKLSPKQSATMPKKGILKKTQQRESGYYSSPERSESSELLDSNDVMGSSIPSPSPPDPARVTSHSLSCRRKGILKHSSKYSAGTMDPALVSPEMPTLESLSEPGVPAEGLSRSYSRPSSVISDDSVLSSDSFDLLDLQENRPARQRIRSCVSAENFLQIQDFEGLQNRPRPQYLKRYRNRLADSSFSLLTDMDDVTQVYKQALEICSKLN

AURKA = AURKA (Homo sapiens, UniProt O14965)
Chain of AURKA (O14965 whole entry): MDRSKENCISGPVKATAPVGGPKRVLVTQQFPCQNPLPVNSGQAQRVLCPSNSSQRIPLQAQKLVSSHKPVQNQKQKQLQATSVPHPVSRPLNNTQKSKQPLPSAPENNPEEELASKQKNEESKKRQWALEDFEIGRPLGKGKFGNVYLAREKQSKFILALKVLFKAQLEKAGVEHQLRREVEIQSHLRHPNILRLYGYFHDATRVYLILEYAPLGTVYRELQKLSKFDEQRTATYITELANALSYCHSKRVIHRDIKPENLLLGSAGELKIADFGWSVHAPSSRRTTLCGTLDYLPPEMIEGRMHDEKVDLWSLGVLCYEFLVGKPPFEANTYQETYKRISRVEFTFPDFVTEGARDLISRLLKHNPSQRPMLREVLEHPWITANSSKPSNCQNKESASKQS

BMX = BMX (Homo sapiens, UniProt P51813)
CDKL5 = CDKL5 (Homo sapiens, UniProt O76039)
CLK1 = CLK1 (Homo sapiens, UniProt P49759)
Chain of CLK1 (P49759 whole entry): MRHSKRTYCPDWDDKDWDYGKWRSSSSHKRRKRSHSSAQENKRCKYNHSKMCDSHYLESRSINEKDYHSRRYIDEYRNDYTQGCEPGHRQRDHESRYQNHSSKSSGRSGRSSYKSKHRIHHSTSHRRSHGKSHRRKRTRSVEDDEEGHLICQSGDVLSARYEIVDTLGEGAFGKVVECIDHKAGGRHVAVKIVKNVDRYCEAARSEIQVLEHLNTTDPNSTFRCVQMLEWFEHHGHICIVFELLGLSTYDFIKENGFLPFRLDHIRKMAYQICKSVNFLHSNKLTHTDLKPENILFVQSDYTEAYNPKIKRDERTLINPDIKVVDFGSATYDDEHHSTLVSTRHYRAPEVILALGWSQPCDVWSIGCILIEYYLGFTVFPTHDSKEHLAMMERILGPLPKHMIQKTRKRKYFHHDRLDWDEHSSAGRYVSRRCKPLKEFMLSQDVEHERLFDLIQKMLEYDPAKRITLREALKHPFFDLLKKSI

CLK4 = CLK4 (Homo sapiens, UniProt Q9HAZ1)
DRAK2 = target: T3, DRAK2 (Homo sapiens, UniProt O94768)
T3 construct: gene STK17B

INSR = INSR (Homo sapiens, UniProt P06213)
KIT-autoinhibited = KIT-autoinhibited (Homo sapiens, UniProt P10721)
MAK = MAK (Homo sapiens, UniProt P20794)
MAP3K1 = MAP3K1 (Homo sapiens, UniProt Q13233)
MYLK2 = MYLK2 (Homo sapiens, UniProt Q9H1R3)
MYLK4 = MYLK4 (Homo sapiens, UniProt Q86YV6)
Chain of MYLK4 (Q86YV6 whole entry): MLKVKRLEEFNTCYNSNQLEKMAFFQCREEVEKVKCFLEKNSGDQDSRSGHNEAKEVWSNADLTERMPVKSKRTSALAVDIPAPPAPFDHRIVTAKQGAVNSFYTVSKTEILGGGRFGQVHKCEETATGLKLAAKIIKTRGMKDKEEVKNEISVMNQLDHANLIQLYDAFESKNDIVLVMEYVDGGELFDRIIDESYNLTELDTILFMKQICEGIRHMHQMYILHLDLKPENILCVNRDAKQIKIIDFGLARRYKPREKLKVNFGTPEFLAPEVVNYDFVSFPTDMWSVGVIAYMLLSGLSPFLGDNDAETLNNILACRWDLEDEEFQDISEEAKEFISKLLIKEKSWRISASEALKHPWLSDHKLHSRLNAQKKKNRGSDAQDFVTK

PDPK1 = PDPK1 (Homo sapiens, UniProt O15530)
Chain of PDPK1 (O15530 whole entry): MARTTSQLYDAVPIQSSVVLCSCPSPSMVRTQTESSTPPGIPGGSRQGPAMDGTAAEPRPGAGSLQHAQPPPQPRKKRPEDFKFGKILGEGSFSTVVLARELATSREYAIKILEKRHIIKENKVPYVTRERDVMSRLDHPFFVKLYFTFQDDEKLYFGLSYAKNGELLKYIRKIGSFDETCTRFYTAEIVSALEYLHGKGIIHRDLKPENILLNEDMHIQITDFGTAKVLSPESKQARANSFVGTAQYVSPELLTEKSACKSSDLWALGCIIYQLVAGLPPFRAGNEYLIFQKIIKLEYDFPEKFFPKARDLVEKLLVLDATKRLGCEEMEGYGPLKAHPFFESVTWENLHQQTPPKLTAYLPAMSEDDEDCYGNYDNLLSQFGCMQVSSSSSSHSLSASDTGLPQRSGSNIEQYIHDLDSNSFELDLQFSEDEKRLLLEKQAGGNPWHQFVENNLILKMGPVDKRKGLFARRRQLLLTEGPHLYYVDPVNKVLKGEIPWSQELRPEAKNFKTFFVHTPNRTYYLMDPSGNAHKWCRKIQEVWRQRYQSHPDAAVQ

PIK3CA = PIK3CA (Homo sapiens, UniProt P42336)
PIP5K2C = target: T4, PIP5K2C (Homo sapiens, UniProt Q8TBX8)
T4 construct: gene PIP4K2C
T4 sequence (Q8TBX8 whole entry): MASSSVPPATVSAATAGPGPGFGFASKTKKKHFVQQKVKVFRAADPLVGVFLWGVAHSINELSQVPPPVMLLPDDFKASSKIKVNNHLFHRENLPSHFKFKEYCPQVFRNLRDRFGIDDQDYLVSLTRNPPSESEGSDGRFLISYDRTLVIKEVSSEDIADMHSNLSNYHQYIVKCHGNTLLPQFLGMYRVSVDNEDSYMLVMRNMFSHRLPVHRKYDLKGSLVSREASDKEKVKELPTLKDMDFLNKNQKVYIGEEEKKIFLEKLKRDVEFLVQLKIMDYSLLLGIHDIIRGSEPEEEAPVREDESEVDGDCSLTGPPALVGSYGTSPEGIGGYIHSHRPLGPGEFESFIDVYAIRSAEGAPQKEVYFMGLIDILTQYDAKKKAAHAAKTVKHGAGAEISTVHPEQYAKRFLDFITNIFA

PRKR = target: T5, PRKR (Homo sapiens, UniProt P19525)
T5 construct: gene EIF2AK2
T5 sequence (P19525 whole entry): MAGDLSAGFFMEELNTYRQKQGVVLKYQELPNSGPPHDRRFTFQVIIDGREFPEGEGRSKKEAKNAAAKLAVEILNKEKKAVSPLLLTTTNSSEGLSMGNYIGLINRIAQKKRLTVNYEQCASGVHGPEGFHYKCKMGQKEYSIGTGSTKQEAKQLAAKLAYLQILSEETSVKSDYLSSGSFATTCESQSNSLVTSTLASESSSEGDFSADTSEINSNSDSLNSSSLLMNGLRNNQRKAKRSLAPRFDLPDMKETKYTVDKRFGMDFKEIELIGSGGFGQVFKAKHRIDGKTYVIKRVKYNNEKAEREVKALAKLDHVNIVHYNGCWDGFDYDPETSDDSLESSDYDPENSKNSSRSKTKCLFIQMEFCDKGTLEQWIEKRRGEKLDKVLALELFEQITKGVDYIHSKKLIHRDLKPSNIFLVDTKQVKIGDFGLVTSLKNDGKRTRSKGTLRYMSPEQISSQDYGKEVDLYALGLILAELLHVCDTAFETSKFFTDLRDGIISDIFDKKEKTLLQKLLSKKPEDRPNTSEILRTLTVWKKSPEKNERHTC

PRP4 = target: T6, PRP4 (Homo sapiens, UniProt Q13523)
T6 construct: gene PRPF4B
T6 sequence (Q13523 whole entry): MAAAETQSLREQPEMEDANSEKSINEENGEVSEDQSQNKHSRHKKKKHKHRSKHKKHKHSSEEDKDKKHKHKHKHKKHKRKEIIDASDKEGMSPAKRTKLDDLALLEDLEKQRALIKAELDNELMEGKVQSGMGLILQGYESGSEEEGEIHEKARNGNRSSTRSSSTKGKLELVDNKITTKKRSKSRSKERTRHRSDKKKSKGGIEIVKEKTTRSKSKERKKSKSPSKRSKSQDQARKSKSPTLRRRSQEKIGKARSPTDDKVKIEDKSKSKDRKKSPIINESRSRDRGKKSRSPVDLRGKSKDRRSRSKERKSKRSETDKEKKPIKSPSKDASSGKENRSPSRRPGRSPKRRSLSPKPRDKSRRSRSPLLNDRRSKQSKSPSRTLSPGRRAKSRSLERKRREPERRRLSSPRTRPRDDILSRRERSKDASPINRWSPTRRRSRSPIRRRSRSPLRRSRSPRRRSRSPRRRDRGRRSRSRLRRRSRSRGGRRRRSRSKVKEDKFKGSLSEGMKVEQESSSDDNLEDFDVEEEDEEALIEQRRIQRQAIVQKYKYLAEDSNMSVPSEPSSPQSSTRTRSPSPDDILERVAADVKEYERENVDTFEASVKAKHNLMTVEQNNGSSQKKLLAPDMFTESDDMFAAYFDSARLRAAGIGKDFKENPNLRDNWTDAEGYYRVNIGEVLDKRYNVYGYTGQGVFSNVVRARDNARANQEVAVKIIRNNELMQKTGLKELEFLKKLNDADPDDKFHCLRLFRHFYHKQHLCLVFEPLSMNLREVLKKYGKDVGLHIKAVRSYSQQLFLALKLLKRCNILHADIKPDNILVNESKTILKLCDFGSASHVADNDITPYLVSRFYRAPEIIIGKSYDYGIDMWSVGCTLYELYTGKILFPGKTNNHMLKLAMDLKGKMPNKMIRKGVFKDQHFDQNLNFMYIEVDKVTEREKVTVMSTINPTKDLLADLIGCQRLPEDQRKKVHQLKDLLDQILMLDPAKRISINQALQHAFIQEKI

ROCK1 = ROCK1 (Homo sapiens, UniProt Q13464)
SGK3 = SGK3 (Homo sapiens, UniProt Q96BR1)
Chain of SGK3 (Q96BR1 whole entry): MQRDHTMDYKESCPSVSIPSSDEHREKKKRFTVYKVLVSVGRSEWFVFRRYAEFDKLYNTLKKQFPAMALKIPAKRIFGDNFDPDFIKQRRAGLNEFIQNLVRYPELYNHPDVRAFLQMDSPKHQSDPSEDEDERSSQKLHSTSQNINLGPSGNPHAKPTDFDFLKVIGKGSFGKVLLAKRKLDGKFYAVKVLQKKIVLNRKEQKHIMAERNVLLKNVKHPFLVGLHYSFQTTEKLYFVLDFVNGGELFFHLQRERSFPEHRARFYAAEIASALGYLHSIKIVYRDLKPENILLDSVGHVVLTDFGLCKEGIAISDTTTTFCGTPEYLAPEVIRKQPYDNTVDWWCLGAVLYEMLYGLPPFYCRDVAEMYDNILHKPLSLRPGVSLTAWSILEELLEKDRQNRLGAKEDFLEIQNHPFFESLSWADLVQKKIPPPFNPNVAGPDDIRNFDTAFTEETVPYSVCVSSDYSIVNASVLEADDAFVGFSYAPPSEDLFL

SRPK2 = SRPK2 (Homo sapiens, UniProt P78362)
STK16 = STK16 (Homo sapiens, UniProt O75716)
TXK = TXK (Homo sapiens, UniProt P42681)

With Cc1ccc(NC(=O)c2cccc(C(F)(F)F)c2)cc1Nc1cc(-c2cccnc2)nc2[nH]ccc12 [HZX-02-059] the remaining binding at 1 µM [1] was 60%, the remaining binding at 1 µM (ARK5) was 100% and the remaining binding at 1 µM (AURKA) was 100%. The remaining binding at 1 µM (BMX) was 80%, the remaining binding at 1 µM (CDKL5) was 90% and the remaining binding at 1 µM (CLK1) was 96%. The remaining binding at 1 µM (CLK4) was 94%, the remaining binding at 1 µM (DRAK2) was 88% and the remaining binding at 1 µM (INSR) was 100%. It also gave a remaining binding at 1 µM (KIT-autoinhibited) of 88%, a remaining binding at 1 µM (MAK) of 95% and a remaining binding at 1 µM (MAP3K1) of 56%. The remaining binding at 1 µM (MYLK2) was 100%, the remaining binding at 1 µM (MYLK4) was 90% and the remaining binding at 1 µM (PDPK1) was 89%. For the same compound, the remaining binding at 1 µM (PIK3CA) was 100%, the remaining binding at 1 µM (PIP5K2C) was 43% and the remaining binding at 1 µM (PRKR) was 95%. It also gave a remaining binding at 1 µM (PRP4) of 69%, a remaining binding at 1 µM (ROCK1) of 100% and a remaining binding at 1 µM (SGK3) of 100%. The remaining binding at 1 µM (SRPK2) was 83%, the remaining binding at 1 µM (STK16) was 96% and the remaining binding at 1 µM (TXK) was 78%.
